Key:
A549 cells = experiment: XTT viability of A549 cells after direct gas exposure in 96-well plate; type: cell-based
Protocol: (§1) In vitro systems: One system involves a direct exposure of cancer cells to gNO in 96-well plate. Gaseous NO at 150 ppm-50,000 ppm was delivered at 0.3 LPM for 10 seconds—3 minutes. In another system, cancer cells were exposed to gNO in a box made of acrylic glass. Gaseous NO at 10,000-50,000 ppm was delivered at 0.9 LPM for 10 seconds—15 minutes.
(§2) The exposure of the cancer cells to gNO was done after removing the cell culture medium.
(§3) Immediately after gas exposure, cell culture medium was added, and the cells were incubated at a 37° C. and 5% CO2 incubator over-night. To test cell viability, XTT assay and Annexin V-Propidium Iodide assays were performed, according to known protocols.
(§4) A549 cells were prepared in RPMI medium and suspended in four 96-well plates. The wells were exposed to the gas by a tubing that was directed at each well for 10, 60 or 180 seconds. The diameter of the gas tubing used was about 25% of the diameter of each well. Three wells were used for each gas and exposure time. The plates were placed in a 5% CO2, 37° C. incubator for 15-18 hours and the viability of the cells was tested by XTT assay.

PC-3 cells = experiment: XTT viability of PC-3 cells after direct gas exposure in 96-well plate; type: cell-based
Protocol: as §1, §2, §3
as §4, with “PC-3” for “A549”

B16.F10 cells = experiment: XTT viability of B16.F10 cells after gas exposure in chamber; type: cell-based; conditions: 10,000 ppm-25,000 ppm gNO for 3-15 minutes
Protocol: as §1, §2, §3
B16.F10 cells were prepared in DMEM medium and suspended in 96-well plates. The plates were placed inside an approx. 2 liter exposure chamber. The plates were exposed to the gas by filling the chamber with gNO for 10 seconds, or 1, 3, 9 or 15 minutes. After exposure, the plates were placed in a 5% CO2, 37° C. incubator for an overnight incubation and the viability of the cells was tested by XTT assay.

4T1 challenge tumor = experiment: Challenge assay in 4T1 tumor-bearing mice; type: in vivo; conditions: 50,000 ppm gNO intra-tumorally for 10 minutes
Protocol: Challenge tumor inoculation: Up to 21 days after gas treatment was applied to the primary tumor, the appropriate cancer cell suspensions were prepared as described herein and inoculation of cells was repeated on the contralateral flank of the mice. Administration was performed as soon as possible following cell suspension preparation and after manual shaking prior to withdrawal of the cell suspension.
The percentage of challenge tumor take was monitored 2-3 times a week by taking a look at the inoculated site and touching this area to look for small tumors that are not yet visible. Naïve mice inoculated with tumor cells for the first time served as an internal control.
In another challenge assay, 4T1 tumor-bearing mice were treated with 50,000 ppm gNO administered intra-tumorally by a 23G hypodermic needle for 10 minutes, and the effect of a local treatment with gNO on the primary tumor as compared to nitrogen was tested, as depicted in FIG. 16A. Fourteen days post gNO treatment, mice were re-inoculated with 10×10^5 4T1 cells subcutaneously (s.c.) (challenge assay). The percentage of tumor take was monitored by caliper measurements 2-3 times a week for 10 days. Naïve mice, inoculated with 4T1 for the first time, served as the control group. […]

4T1 cells = experiment: Third inoculation with 4T1 breast cancer cells in a gNO-treated CT26 immunized mouse; type: in vivo; conditions: mouse treated with 25,000 ppm NO twice 15 minutes; third inoculation 30 days post the second
Protocol: Balb/c mouse was inoculated with 500,000 CT26 cells to the right flank. CT26 tumor was treated with 25,000 ppm NO for 15 minutes at a flow rate of 0.25 LPM. Seven days post gas treatment, this mouse was treated once again using the same protocol. Twelve days post the first NO treatment, this mouse was re-inoculated with 500,000 CT26 cells to the left flank. A third inoculation of cancer cells was performed 30 days post the second cell inoculation, using mouse breast cancer cells, was performed as well and the growth of a third inoculation of breast cancer cells, 4T1 cells. Forty-four days post challenge assay start (second inoculation), this mouse was sacrificed, and his spleen was harvested and preserved in RPMI-based media at 4° c. until processing of it. The spleen was processed into a sterile 35 mm culture dish containing 5 ml of RPMI-based media. Any extra connective tissues or fat was trimmed from the spleen. The flat end of a plunger was used to mince the spleen by crushing the spleen to release the splenocytes. A 70 μm strainer was primed by passing 1 ml of PBS through it and placed on a sterile 50 mL conical tube. The pellet was collected and transferred through the strainer via a 5 mL serological pipette. The strainer was washed with 3 mL of RPMI-based media. Tube will be centrifuged at 300×g for 10 minutes. […]

CT26 challenge tumor = experiment: gNO, tumor excision and CT26 re-challenge: tumor take and survival; type: in vivo, mice; conditions: about 75 days
Protocol: CT26 tumor-bearing male mice were treated with 20,000 ppm and 50,000 ppm gNO intra-tumorally for 5 minutes. Fourteen days post gNO treatment, all tumors were excised. A week post surgery, all mice were re-challenged via a second inoculation of 5×10^5 CT26 cells, and tumor take and survival were monitored during about 75 days, as depicted in FIG. 21A.

[1] = pH of cell suspension after ex-vivo gNO treatment of tumor cells; type: physicochemical; conditions: ex-vivo treatment of tumor cells with gNO

[N]=O [gNO, nitric oxide]
viability of A549 cells (A549 cells; 4000, 10,000, or 50,000 ppm gNO for 10 seconds): 50%-84% | viability of A549 cells (A549 cells; 4000, 10,000, or 50,000 ppm gNO for 60 seconds): 65%-96% | viability of A549 cells (A549 cells; 4000, 10,000, or 50,000 ppm gNO for 180 seconds): 45%-62% | viability of PC-3 cells (PC-3 cells; 4,000 ppm and 10,000 ppm gNO for 180 seconds): 43-48% | viability at 4000 ppm (PC-3 cells; Homo sapiens, PC-3, 1 min, 4,000 ppm, 10,000 ppm and 50,000 ppm gNO for 1 minute): 44 to 55% | viability at 4000 ppm (PC-3 cells; Homo sapiens, PC-3, 4,000 ppm, 10,000 ppm and 50,000 ppm gNO for 10 seconds): 56 to 72% | viability at 50000 ppm (PC-3 cells; Homo sapiens, PC-3, 50,000 ppm gNO for 180 seconds): ~17% | viability of B16.F10 cells (B16.F10 cells): less than 5% | development of a secondary (challenge) 4T1 tumor (4T1 challenge tumor; 5 days post challenge tumor inoculation): have not developed a secondary tumor | challenge tumor take compared to non-treated and nitrogen-treated mice (4T1 challenge tumor; 10 days post re-inoculation): a delay in the challenge tumor take was achieved | growth of a third inoculation of breast cancer cells (4T1) (4T1 cells): inhibited | challenge tumor development (CT26 challenge tumor; 20,000 ppm and 50,000 ppm gNO 5 minutes, excision day 14, re-challenge a week post surgery): no tumor development | survival (CT26 challenge tumor; 50,000 ppm gNO 5 minutes, excision, re-challenge): 100% | pH of cell suspension comprising gNO-treated tumor cells [1]: acidic pH
